Source: patent publication US9233971B2, “Lipomacrocycles and uses thereof” (priority 2010, dated 2016)

How the values were obtained:
SSB mRNA in liver [1] = assay: In vivo gene knockdown, liposomal siRNA formulation (Example 3), SSB siRNA; design: species or system CD1 mice; conditions: for Targeted mRNA remain in liver: liposomal formulation, SSB siRNA, dose 3.2 mg/kg intravenously, CD1 mice, liver harvested three days later, real-time RT-PCR, GAPDH reference
Experimental: Each liposome formulation was made by mixing lipids of each lipomacrocycle compound (Table 1) combined with DSPC, DMG-PEG 2K, and cholesterol at the weight ratio of 3.85:0.42:0.21:0.79 in ethanol and siRNA in water. Then 5% dextrose water was added in each formulation before dosing to mice.
(§1) All procedures used in animal studies conducted were approved by the Institutional Animal Care and Use Committee (IACUC) and were consistent with local, state and federal regulations as applicable. Mice, rats, and rabbits received siRNA formulations intravenously at dose volume of 0.2 ml, 1 ml, or 10 ml, respectively. Animals were sacrificed 2 to 7 days later. Tissues were harvested and mRNA was isolated with Turbocapture kit (Qiagen) for analyzing change of gene expression with real-time RT-PCR method (SensiMix SYBR One-Step Kit, Bioline). Serum was harvested for analyzing blood chemistry.
(§2) CD1 mice were dosed with lipid particle (Table 1) or liposome (Table 2) siRNA formulation intravenousely and the different tissues were harvested three days later. The gene expression was analyzed with real-time RT-PCR method (for liver, GAPDH as reference gene; for lung and bone marrow, GAPDG and β-actin as reference genes).

SSB mRNA in liver [2] = assay: In vivo gene knockdown, lipid particle siRNA formulation (Example 4), SSB siRNA; conditions: lipid particles, CD1 mice, liver harvested three days later, real-time RT-PCR, GAPDH reference
Experimental: (§3) Lipid Particle formulations were made by first mixed siRNA in an aqueous solution with DOTMA in organic solvent to produce a water-insoluble precipitate. After isolating and drying the precipitate, the precipitate was dissolved in chloroform and further mixed with other lipids as following: Each lipid particle formulation was consisting of 1 part DOTMA+siRNA complex/5 parts any lipomacrocycle compound (Table 1)/1.5 parts N 6-tetrakis (3-aminopropyl)-1,3-propanediamine cholesteryl carbamate/2.2 parts 1,2-dilinoleoyl-sn-glycero-3-phosphoethanolamine/10.08 parts cholesterol PEG-660/4.32 parts cholesterol PEG-660/0.6 parts cholesterol (weight/weight). All the components were dissolved in chloroform and mixed together. Then, the mixtures were dried overnight in Speedvac. The dried formulations were hydrated by adding in certain amount of 5% dextrose water before dosing to animals intravenously.
as §1, §2

APOB mRNA in liver = assay: In vivo gene knockdown, lipid particle siRNA formulation (Example 4), APOB siRNA; design: species or system CD1 mice; conditions: for Targeted mRNA remain in liver: lipid particles, APOB siRNA, CD1 mice, liver harvested three days later, real-time RT-PCR, GAPDH reference
Experimental: as §3, §1, §2

SMILES | Targeted mRNA remain in liver (SSB mRNA in liver [1]) | further results
CCCCCCCCCCCCC(O)CN1CCN(Cc2ccccc2)CCN(CC(O)CCCCCCCCCCCC)CCN(Cc2ccccc2)CC1 (stereo not shown) [Compound M6C6] | 0.8 | –
CCCCCCCCCCCCCCC(O)CN1CCN(Cc2ccccc2)CCN(CC(O)CCCCCCCCCCCCCC)CCN(CC(O)CCCCCCCCCCCCCC)CC1 (stereo not shown) [Compound M1C7] | 0.47 | Targeted mRNA remain in liver (SSB mRNA in liver [2]; dose 3.2 mg/kg intravenously): 0.35
CCCCCCCCCCCCOCC(O)CN1CCN(CC(O)COCCCCCCCCCCCC)CCN(CC(O)COCCCCCCCCCCCC)CCN(CC(O)COCCCCCCCCCCCC)CCN(CC(O)COCCCCCCCCCCCC)CCN(CC(O)COCCCCCCCCCCCC)CC1 (stereo not shown) [Compound M10C8] | – | Targeted mRNA remain in liver (APOB mRNA in liver; dose 1 mg/kg intravenously): 0.06; performance of the lipid molecules, best compounds (APOB mRNA in liver; ranking based on the results of Table 1 (lipid particles, APOB and SSB siRNA)): best
CCCCCCCCCCCCC(O)CN1CCN(CC(O)CCCCCCCCCCCC)CCN(CC(O)CCCCCCCCCCCC)CCN(CC(O)CCCCCCCCCCCC)CC1 (stereo not shown) [Compound T2C6] | 0.66 | Targeted mRNA remain in liver (SSB mRNA in liver [2]; dose 3.2 mg/kg intravenously): 0.86
CCCCCCCCCCCCCCCCC(O)CN(CCN(C)CCN(CC(O)CCCCCCCCCCCCCCCC)CC(O)CCCCCCCCCCCCCCCC)CC(O)CCCCCCCCCCCCCCCC (stereo not shown) [MdC5] | 0.45 | –
CCCCC(CC)COCC(O)CN(CCCN(CCCCN(CCCN(CC(O)COCC(CC)CCCC)CC(O)COCC(CC)CCCC)CCCN(CC(O)COCC(CC)CCCC)CC(O)COCC(CC)CCCC)CCCN(CC(O)COCC(CC)CCCC)CC(O)COCC(CC)CCCC)CC(O)COCC(CC)CCCC (stereo not shown) [Compound T4C3] | 0.12 | –
CCCCCCCCCCCCCCOCC(O)CN(CCCN(CCCN(CC(O)COCCCCCCCCCCCCCC)CC(O)COCCCCCCCCCCCCCC)CCCN(CC(O)COCCCCCCCCCCCCCC)CC(O)COCCCCCCCCCCCCCC)CC(O)COCCCCCCCCCCCCCC (stereo not shown) [TaC1] | 0.1 | Targeted mRNA remain in liver (APOB mRNA in liver; dose 0.8 mg/kg intravenously): 0.81
CCCCCCCCCCCCC(O)CN(CCCN1CCN(CCCN(CC(O)CCCCCCCCCCCC)CC(O)CCCCCCCCCCCC)CC1)CC(O)CCCCCCCCCCCC (stereo not shown) [Compound B2C6] | 0.08 | performance of the lipid molecules, best performing compounds (SSB mRNA in liver [1]; ranking based on the results of Table 2 (liposomal formulation, SSB and APOB siRNA)): best performing
CCCCC(CC)COCC(O)CN1CCN(Cc2ccccc2)CCN(CC(O)COCC(CC)CCCC)CCN(CC(O)COCC(CC)CCCC)CC1 (stereo not shown) [Compound M1C3] | 0.64 | –
CCCCCCCCCCCCCCOCC(O)CN1CCN(Cc2ccccc2)CCN(CC(O)COCCCCCCCCCCCCCC)CCN(Cc2ccccc2)CC1 (stereo not shown) [Compound M6C1] | 0.98 | Targeted mRNA remain in liver (SSB mRNA in liver [2]; dose 3.2 mg/kg intravenously): 0.64
CCCCCCCCCCOCC(O)CN(CCCN(CCCN(CC(O)COCCCCCCCCCC)CC(O)COCCCCCCCCCC)CCCN(CC(O)COCCCCCCCCCC)CC(O)COCCCCCCCCCC)CC(O)COCCCCCCCCCC (stereo not shown) [TaC2] | 0.13 | –
CCCCCCCCCCC(O)CN(CCCN(CCCN(CC(O)CCCCCCCCCC)CC(O)CCCCCCCCCC)CC(O)CCCCCCCCCC)CCCN(CC(O)CCCCCCCCCC)CC(O)CCCCCCCCCC (stereo not shown) [NsC4] | 0.13 | –
CCCCCCCCCCCCCCC(O)CN(CCCN(CCCN(CC(O)CCCCCCCCCCCCCC)CC(O)CCCCCCCCCCCCCC)CCCN(CC(O)CCCCCCCCCCCCCC)CC(O)CCCCCCCCCCCCCC)CC(O)CCCCCCCCCCCCCC (stereo not shown) [TaC7] | 0.33 | –
CCCCC(CC)COCC(O)CN1CCN(CC(O)COCC(CC)CCCC)CCN(CC(O)COCC(CC)CCCC)CCN(CC(O)COCC(CC)CCCC)CCN(CC(O)COCC(CC)CCCC)CCN(CC(O)COCC(CC)CCCC)CC1 (stereo not shown) [Compound M10C3] | – | Targeted mRNA remain in liver (SSB mRNA in liver [2]; dose 3 mg/kg intravenously): 0.43
CCCCC(CC)COCC(O)CN(CCN(C)CCN(CC(O)COCC(CC)CCCC)CC(O)COCC(CC)CCCC)CC(O)COCC(CC)CCCC (stereo not shown) [MdC3] | 0.24 | –
CCCCCCCCCCCCCCC(O)CN(CCCN(CCCN(CC(O)CCCCCCCCCCCCCC)CC(O)CCCCCCCCCCCCCC)CC(O)CCCCCCCCCCCCCC)CCCN(CC(O)CCCCCCCCCCCCCC)CC(O)CCCCCCCCCCCCCC (stereo not shown) [NsC7] | 0.1 | –
CCCCCCCCCCCCCCC(O)CN(CCN(C)CCN(CC(O)CCCCCCCCCCCCCC)CC(O)CCCCCCCCCCCCCC)CC(O)CCCCCCCCCCCCCC (stereo not shown) [MdC7] | 0.25 | –
CCCCCCCCCCC(O)CN(CCN(CCN(CC(O)CCCCCCCCCC)CC(O)CCCCCCCCCC)CCN(CC(O)CCCCCCCCCC)CC(O)CCCCCCCCCC)CC(O)CCCCCCCCCC (stereo not shown) [Compound T5C4] | 0.41 | –

SMILES | Targeted mRNA remain in liver (SSB mRNA in liver [1]) | further results
CCCCC(CC)COCC(O)CN(CCCN(CC(O)COCC(CC)CCCC)CC(O)COCC(CC)CCCC)CCCN(CC(O)COCC(CC)CCCC)CC(O)COCC(CC)CCCC (stereo not shown) [Compound D1C3] | 0.18 | –
CCCCCCCCCCC(O)CN(CCCN(CCCN(CC(O)CCCCCCCCCC)CC(O)CCCCCCCCCC)CCCN(CC(O)CCCCCCCCCC)CC(O)CCCCCCCCCC)CC(O)CCCCCCCCCC (stereo not shown) [TaC4] | 0.12 | –
CCCCCCCCCCOCC(O)CN(CCCN(C)CCCN(CC(O)COCCCCCCCCCC)CC(O)COCCCCCCCCCC)CC(O)COCCCCCCCCCC (stereo not shown) [Compound B1C2] | 0.68 | –
CCCCCCCCCCOCC(O)CN(CCCN1CCN(CCCN(CC(O)COCCCCCCCCCC)CC(O)COCCCCCCCCCC)CC1)CC(O)COCCCCCCCCCC (stereo not shown) [Compound B2C2] | 0.36 | –
CCCCCCCCCCCCCCC(O)CN(CCCN(CC(O)CCCCCCCCCCCCCC)CC(O)CCCCCCCCCCCCCC)CCCN(CC(O)CCCCCCCCCCCCCC)CC(O)CCCCCCCCCCCCCC (stereo not shown) [Compound D1C7] | 0.52 | –
CCCCC(CC)COCC(O)CN(CCN(CCN(CC(O)COCC(CC)CCCC)CC(O)COCC(CC)CCCC)CCN(CC(O)COCC(CC)CCCC)CC(O)COCC(CC)CCCC)CC(O)COCC(CC)CCCC (stereo not shown) [Compound T5C3] | 0.43 | –
CCCCCCCCCCCCC(O)CN(CCN(C)CCN(CC(O)CCCCCCCCCCCC)CC(O)CCCCCCCCCCCC)CC(O)CCCCCCCCCCCC (stereo not shown) [MdC6] | 1.1 | –
CCCCCCCCCCCCC(O)CN(CCCN(CCCN(CC(O)CCCCCCCCCCCC)CC(O)CCCCCCCCCCCC)CCCN(CC(O)CCCCCCCCCCCC)CC(O)CCCCCCCCCCCC)CC(O)CCCCCCCCCCCC (stereo not shown) [TaC6] | 0.17 | –
CCCCCCCCCCCCCCOCC(O)CN(CCCN(C)CCCN(CC(O)COCCCCCCCCCCCCCC)CC(O)COCCCCCCCCCCCCCC)CC(O)COCCCCCCCCCCCCCC (stereo not shown) [Compound B1C1] | 0.13 | Targeted mRNA remain in liver (APOB mRNA in liver; dose 0.8 mg/kg intravenously): 0.82
CC(C)CCC[C@@H](C)[C@H]1CC[C@H]2[C@@H]3CC=C4C[C@@H](OC(=O)N5CCNCCNCCNCCNCCNCC5)CC[C@]4(C)[C@H]3CC[C@]12C [Compound M10ch1] | – | Targeted mRNA remain in liver (APOB mRNA in liver; dose 3 mg/kg intravenously): 0.39
CCCCCCCCCCCCCCOCC(O)CN(CCN(CCN(CC(O)COCCCCCCCCCCCCCC)CC(O)COCCCCCCCCCCCCCC)CCN(CC(O)COCCCCCCCCCCCCCC)CC(O)COCCCCCCCCCCCCCC)CC(O)COCCCCCCCCCCCCCC (stereo not shown) [Compound T5C1] | 0.13 | –
CCCCCCCCCCCCCCCCC(O)CN1CCN(Cc2ccccc2)CCN(CC(O)CCCCCCCCCCCCCCCC)CCN(CC(O)CCCCCCCCCCCCCCCC)CC1 (stereo not shown) [Compound M1C5] | 0.6 | –
CCCCCCCCCCC(O)CN1CCN(CC(O)CCCCCCCCCC)CCN(CC(O)CCCCCCCCCC)CCN(CC(O)CCCCCCCCCC)CCN(CC(O)CCCCCCCCCC)CCN(CC(O)CCCCCCCCCC)CC1 (stereo not shown) [Compound M10C4] | – | Targeted mRNA remain in liver (SSB mRNA in liver [2]; dose 3 mg/kg intravenously): 0.63
CC(C)CCC[C@@H](C)[C@H]1CC[C@H]2[C@@H]3CC=C4C[C@@H](OC(=O)N5CCN(Cc6ccccc6)CCNCCN(Cc6ccccc6)CC5)CC[C@]4(C)[C@H]3CC[C@]12C [Compound M6ch1] | – | Targeted mRNA remain in liver (APOB mRNA in liver; dose 3 mg/kg intravenously): 0.86
CCCCCCCCCCCCCCOCC(O)CN1CCCN(CC(O)COCCCCCCCCCCCCCC)CCCN(CC(O)COCCCCCCCCCCCCCC)CCC1 (stereo not shown) [Compound M9C1] | 0.3 | Targeted mRNA remain in liver (SSB mRNA in liver [2]; dose 3.2 mg/kg intravenously): 0.2
CC(C)CCC[C@@H](C)[C@H]1CC[C@H]2[C@@H]3CC=C4C[C@@H](OC(=O)NCCN(CCN)CCN)CC[C@]4(C)[C@H]3CC[C@]12C [Compound T5ch1] | – | Targeted mRNA remain in liver (APOB mRNA in liver; dose 3 mg/kg intravenously): 0.39
CCCCCCCCCCOCC(O)CN(CCCN(CCCN(CC(O)COCCCCCCCCCC)CC(O)COCCCCCCCCCC)CC(O)COCCCCCCCCCC)CCCN(CC(O)COCCCCCCCCCC)CC(O)COCCCCCCCCCC (stereo not shown) [NsC2] | 0.1 | –
